Patent US8062996B2, “Plant glutamate receptors” (priority 1995, dated 2011)

Key:
Arabidopsis [1] = assay: Plant growth assay: root length on vertical tissue culture plates; type: in vivo
Protocol: Arabidopsis seeds were grown on MS+3% sucrose vertical tissue culture plates containing various amounts of kainate (FIG. 11A) or DNQX (FIG. 11B), with (white bars) or without (black bars) glutamate supplementation. The effects of each drug on plant growth were assayed by measuring root length after two week. The results were discussed in text.
The following assay may be utilized in order to screen drugs for their effects on plant growth mediated by the GluR. Arabidopsis seedlings expressing or overexpressing the GluR are treated with the potential agonist or antagonist. In this plant growth assay, Arabidopsis seeds are plated on tissue culture plates in MS Medium (Murashige and Skoog Salt Mixture-plant basic medium available from Gibco (BRL)). A dose-response curve is determined using various concentrations of the potential agonist or antagonist added to the medium. The plants are grown vertically in a growth chamber at 22° C. with a 16 hour light/8 hour dark cycle for two weeks. The effects of each herbicide on plant growth is assessed by measuring root length on vertical tissue culture plates.
A dose-response curve using various concentrations of KA or DNQX was performed and the effects of each drug on plant growth was determined by measuring root length on vertical tissue culture plates (see FIG. 11).

ASN1 mRNA = ASN1 mRNA levels by Northern blot (relief of sucrose repression); type: in vivo, Arabidopsis; conditions: for relief of sucrose repression of ASN1 mRNA: 3% sucrose, dark 2 d; for induction of ASN1 mRNA: average of two Northern blot experiments, densitometry
Protocol: FIG. 12A. Arabidopsis seeds were grown on plates containing MS medium plates 3% (w/v) Suc under 16-h light/8-h dark cycle for 2-3 weeks. The plants were then transferred to media described below and grown in complete darkness for 2d. All samples containing 3% sucrose except for lane 2. MS was supplemented with kainate (lane 4:0.3 mM and lane 5: 0.03 mM), 0.05% (w/v) glutamate (lanes 6 and 7), and 10 μM DNQX (lanes 7 and 8). The expression of ASN1 and a control gene were detected by northern analyses on duplicate blots (under high-stringency conditions in 50% [v/v] formamide-solution), 20 μg of total RNA was used for each lane.
FIG. 12B. Quantitation of the Northern blot results in (A) by densitometry scan.
FIG. 12C. Average folds of induction in two Northern blot experiments.
The ability of a iGluR agonist to mimic the glutamate-stimulated expression of nitrogen assimilatory genes in Arabidopsis was tested using low concentrations of agonist KA and monitoring ASN1 mRNA levels as a measure of gene induction by KA.
ASN1 mRNA accumulates to high levels specifically in dark-treated plants (FIG. 12A, lane 2), and is repressed by light (FIG. 12A, lane 1) or sucrose (FIG. 12A, lane 3). […] ASN1 mRNA levels are determined by Northern blot analysis.

Arabidopsis [2] = assay: Germination of Arabidopsis in the dark; type: in vivo
Text: FIG. 23. Effects of kainate of germination of Arabidopsis in the dark.
Kainate inhibition of germination in the dark is reversed by glutamate. Plants germinated in the dark on “normal” MS media (MS) as a positive control. Kainate, the iGluR agonist, causes a specific inhibition of germination of plants grown in MS media containing KA. The inhibition of germination by KA is reversed by the addition of glutamate to the media (MS+KA+Glu) (FIG. 23). Germination involves a light signal. Dark-grown seedlings are sown in the light and transferred to the dark. […] High doses of KA an agonist of iGluR in animals functions as a neurotoxin.
The effects of kainate on germination of Arabidopsis in the dark was determined.

[3] = system: Arabidopsis wild-type seedlings; assay: Survival of wild-type seedlings on high-dose kainate; type: in vivo; conditions: 12 mM kainate
Protocol: FIGS. 28A and 28B. Selection of Arabidopsis mutants resistant to the iGluR agonist Kainate. […] This is not unexpected as high doses of the iGluR agonist kainate function as a neurotoxin in animals. Arabidopsis mutants with putative defects in the KA binding site of iGluR were selected for the ability to grow in the presence of 12 mM kainate. […] Note the one KA-resistant plant is enlarged in FIG. 28B.
Arabidopsis mutants resistant to the iGluR agonist Kainate were selected. […] This is not unexpected as high doses of the iGluR agonist kainate function as a neurotoxin in animals. Arabidopsis mutants with putative defects in the KA binding site of iGluR were selected by selecting for mutants able to grow in the presence of 12 mM kainate. The ems mutagenized Arabidopsis M2 seedlings were sown on 12 mM kainate. Note the one KA-resistant plant is enlarged in FIG. 28B.

Compound | root growth (Arabidopsis [1]; high concentrations of agonist or antagonist, without glutamate) | effect of high doses on root growth with glutamate supplementation (Arabidopsis [1]; high doses plus glutamate) | effect on plant growth (root length) (Arabidopsis [1]; low concentrations, 0 to 0.3 mM KA, two weeks) | relief of sucrose repression of ASN1 mRNA (ASN1 mRNA; KA 300 uM and 30 μM) | induction of ASN1 mRNA (ASN1 mRNA) | germination of dark-grown seedlings (Arabidopsis [2]; kainate 200-400 uM) | inhibition of germination with glutamate supplementation (Arabidopsis [2]; kainate plus glutamate in growth media) | lethality to wild-type seedlings [3] | relief of sucrose repression of ASN1 mRNA (ASN1 mRNA; 0.05% (w/v) glutamate)
C=C(C)[C@H]1CN[C@H](C(=O)O)[C@H]1CC(=O)O [KA, kainic acid] | reduction in root growth | at least partially reversed by glutamate supplementation | no adverse effects on plant growth | able to relieve the sucrose repression of ASN1 mRNA | roughly 2 fold | significant inhibition of germination | specifically reversed by the supplementation of glutamate | kill wild-type seedlings | –
N[C@@H](CCC(=O)O)C(=O)O [glutamate] | – | – | – | – | roughly 2 fold | – | – | – | able to partially relieve this sucrose repression
